Data from patent US9725414B2, “Fungicidal N-bicycloalkyl and N-tricycloalkyl pyrazole-4-(thio)carboxamide derivatives” (priority 2011, dated 2017).
Read-outs that look alike come from different tables or passages of the source.

What was measured:
[1] = log P by HPLC on reversed-phase column (C 18), EEC Directive 79831 Annex V.A8; assay type: physicochemical
Method: In table 1, the log P values were determined in accordance with EEC Directive 79831 Annex V.A8 by HPLC (High Performance Liquid Chromatography) on a reversed-phase column (C 18), using the method described below: Temperature: 40° C.; Mobile phases: 0.1% aqueous formic acid and acetonitrile; linear gradient from 10% acetonitrile to 90% acetonitrile. Calibration was carried out using unbranched alkan-2-ones (comprising 3 to 16 carbon atoms) with known log P values (determination of the log P values by the retention times using linear interpolation between two successive alkanones). lambda-max-values were determined using UV-spectra from 200 nm to 400 nm and the peak values of the chromatographic signals.

Pyrenophora teres [2] = assay: Example E: in vivo preventive test on Pyrenophora teres (barley), DMF/emulsifier preparation; conditions: 500 ppm of active ingredient, evaluated 7-9 days after inoculation
Method: In Vivo Preventive Test on Pyrenophora teres (Barley) Solvent: 49 parts by weight of N,N-dimethylformamide Emulsifier: 1 part by weight of alkylaryl polyglycol ether To produce a suitable preparation of active compound, 1 part by weight of active compound is mixed with the stated amounts of solvent and emulsifier, and the concentrate is diluted with water to the desired concentration. To test for preventive activity, young plants are sprayed with the preparation of active compound at the stated rate of application. One day after this treatment, the plants are inoculated with an aqueous spore suspension of Pyrenophora teres. The plants remain for 48 hours in an incubation cabinet at 22° C. and a relative atmospheric humidity of 100%.

Alternaria solani = assay: Example C: in vivo preventive test on Alternaria solani (tomato); conditions: 500 ppm of active ingredient, evaluated 7 days after inoculation
Method: In Vivo Preventive Test on Alternaria solani (Tomato) Solvent: 49 parts by weight of N,N-dimethylformamide Emulsifier: 1 part by weight of alkylarylpolyglycolether To produce a suitable preparation of active compound, 1 part by weight of active compound is mixed with the stated amounts of solvent and emulsifier, and the concentrate is diluted with water to the desired concentration. To test for preventive activity, young plants are sprayed with the preparation of active compound at the stated rate of application. One day after this treatment, the plants are inoculated with an aqueous spore suspension of Alternaria solani. The plants remain for one day in an incubation cabinet at approximately 22° C. and a relative atmospheric humidity of 100%. Then the plants are placed in an incubation cabinet at approximately 20° C. and a relative atmospheric humidity of 96%.

Sphaerotheca fuliginea = assay: Example B: in vivo preventive test on Sphaerotheca fuliginea (powdery mildew on cucurbits), gherkin plants; conditions: 500 ppm of active ingredient, grading 12 days after contamination
Method: In Vivo Preventive Test on Sphaerotheca fuliginea (Powdery Mildew on Cucurbits) […] Gherkin plants (“Vert petit de Paris” variety), sown in starter cups on a 50/50 peat soil-pozzolana substrate and grown at 24° C. are treated at the Z11 cotyledon stage by spraying with the active ingredient prepared as described above. Plants, used as controls, are treated with the mixture of acetone/tween/DMSO/water not containing the active material. After 24 hours, the plants are contaminated by spraying the cotyledons with an aqueous suspension of Sphaerotheca fuliginea spores (100 000 spores per mL). The spores are collected from infected plants.

Septoria tritici = assay: Example I: in vivo preventive test on Septoria tritici (wheat), acetone/tween/DMSO preparation; conditions: 500 ppm of active ingredient, grading 24 days after contamination
Method: In Vivo Preventive Test on Septoria tritici (Wheat) […] Wheat plants (“Scipion” variety), sown in starter cups on a 50/50 peat soil pozzolana substrate and grown at 22° C., are treated at the 1 leaf stage (10 cm height) by spraying with the active ingredient prepared as described above. Plants, used as controls, are treated with the mixture of acetone/tween/DMSO/water not containing the active material. After 24 hours, the plants are contaminated by spraying the leaves with an aqueous suspension of cryopreserved Septoria tritici spores (500 000 spores per mL). The contaminated wheat plants are incubated for 72 hours at 18° C. and at 100% relative humidity, and then for 21 days at 90% relative humidity. Grading (% of efficacy) is carried out 24 days after the contamination, in comparison with the control plants.

Pyrenophora teres [3] = assay: Example F: in vivo preventive test on Pyrenophora teres (barley), acetone/tween/DMSO preparation; conditions: 500 ppm of active ingredient, barley, grading 14 days after contamination
Method: In Vivo Preventive Test on Pyrenophora teres (Barley) […] Barley plants (“Plaisant” variety), sown in starter cups on a 50/50 peat soil pozzolana substrate and grown at 22° C., are treated at the 1 leaf stage (10 cm height) by spraying with the active ingredient prepared as described above. Plants, used as controls, are treated with the mixture of acetone/tween/DMSO/water not containing the active material. After 24 hours, the plants are contaminated by spraying the leaves with an aqueous suspension of Pyrenophora teres spores (12 000 spores per mL). The spores are collected from a 12-day-old culture. […] Grading (% of efficacy) is carried out 14 days after the contamination, in comparison with the control plants.

Puccinia recondita = assay: Example M: in vivo preventive test on Puccinia recondita (brown rust on wheat); conditions: 500 ppm of active ingredient, grading 12 days after contamination
Method: In Vivo Preventive Test on Puccinia recondita (Brown Rust on Wheat) […] Wheat plants (“Scipion” variety), sown in starter cups on a 50/50 peat soil pozzolana substrate and grown at 22° C., are treated at the 1 leaf stage (10 cm height) by spraying with the active ingredient prepared as described above. Plants, used as controls, are treated with the mixture of acetone/tween/DMSO/water not containing the active material. After 24 hours, the plants are contaminated by spraying the leaves with an aqueous suspension of Puccinia recondite spores (100 000 spores per mL). The spores are collected from an infected plant and are suspended in water containing 2.5 mL/L of Tween 80 at 10%. […] Grading (% of efficacy) is carried out 12 days after the contamination, in comparison with the control plants.

[4] = HPLC reversed-phase C 18, 40° C., 0.1% aqueous formic acid and acetonitrile gradient, several values = mixture of two or more isomers

SMILES	logP [1]	Efficacy (Pyrenophora teres [2]) [%]	Efficacy (Alternaria solani) [%]	also measured
Cn1cc(C(=O)NC2C3(C)CCC(C3)C2(C)C)c(C(F)F)n1 (centres unmarked) [Example 41]	3.35			
Cn1nc(C(F)F)c(C(=O)NC2CCC3CCCCC3C2)c1Cl (mixture of isomers) [Example 34]		70	95	
Cn1nc(C(F)F)c(C(=O)N(CC23CC4CC(CC(C4)C2)C3)C2CC2)c1Cl [Example 108]	4.68			
Cn1nc(C(F)F)c(C(=O)N(C2CC2)C2CCC3CCCCC3C2)c1Cl (mixture of isomers) [Example 37]		100	95	
CC1CC1N(C(=O)c1c(C(F)(F)F)nn(C)c1F)C(C)C1CC2CCC1C2 (centres unmarked) [Example 112]	4.92			
Cn1nc(C(F)F)c(C(=O)NC2CCCC3CCCCC32)c1Cl (mixture of isomers) [Example 30]				Efficacy (Sphaerotheca fuliginea): 100%
CC1CC(C)(C)C2CCCC(NC(=O)c3cn(C)nc3C(F)(F)F)C12 (centres unmarked) [Example 17]	4.00	95	94	
Cn1cc(C(=O)NC2CCCC3CCCCC32)c(C(F)F)n1 (mixture of isomers) [Example 29]				Efficacy (Sphaerotheca fuliginea): 95%
Cn1nc(C(F)F)c(C(=O)NCC23CC4CC(CC(C4)C2)C3)c1F [Example 89]			95	logP [1, 4]: 3.67
Cn1nc(C(F)F)c(C(=O)NC2CCC3CCCCC3C2)c1F (mixture of isomers) [Example 35]			80	
Cn1nc(C(F)F)c(C(=O)NCC2CCC3CC2C3(C)C)c1F (centres unmarked) [Example 84]	3.62	100	95	
CC1C(CN(C(=O)c2c(C(F)F)nn(C)c2Cl)C2CC2)CC2CC1C2(C)C (centres unmarked) [Example 79]	4.82	100	94	
Cn1cc(C(=O)NC2(C#N)CC3CCC2C3)c(C(F)F)n1 (centres unmarked) [Example 44]	1.97			
Cn1cc(C(=O)N(CC23CC4CC(CC(C4)C2)C3)C2CC2)c(C(F)F)n1 [Example 111]	3.92			
Cn1cc(C(=O)N(C2CC2)C2CCC3CCCCC3C2)c(C(F)F)n1 (mixture of isomers) [Example 36]		100	95	
CC(NC1CC1)C12CC3CC(CC(C3)C1)C2 (centres unmarked) [N-[1-(adamantan-1-yl)ethyl]cyclopropanamine]				chromatographic logP [1]: 5.82
Cc1nn(C)c(F)c1C(=O)NC1CCCC2C1C(C)CC2(C)C (centres unmarked) [Example 15]	3.76	100	89	
Cn1nc(C(F)F)c(C(=S)N(C2CC2)C2CCC3CCCC3C2)c1F (centres unmarked) [Example 24]	4.90	95		
CC(C)N(C(=O)c1c(C(F)F)nn(C)c1F)C1CCCC2CCCCC21 (centres unmarked) [Example 27]	4.58			
Cn1nc(C(F)F)c(C(=O)NC2(C#N)CC3CCC2C3)c1F (centres unmarked) [Example 45]	2.16			

SMILES	logP [1]	Efficacy (Pyrenophora teres [2]) [%]	Efficacy (Alternaria solani) [%]	also measured
Cn1nc(C(F)F)c(C(=O)NC2(C#N)CC3CCC2C3)c1Cl (centres unmarked) [Example 43]	2.34			
Cn1nc(C(F)F)c(C(=O)NCC23CC4CC(CC(C4)C2)C3)c1Cl [Example 88]			100	logP [1, 4]: 3.89
Cn1nc(C(F)F)c(C(=O)NC2C3(C)CCC(C3)C2(C)C)c1F (centres unmarked) [Example 40]	3.70			
Cn1nc(C(F)F)c(C(=O)NC2C3(C)CCC(C3)C2(C)C)c1Cl (centres unmarked) [Example 39]	3.92			
Cn1cc(C(=O)N(C2CC2)C2CCCC3CCCCC32)c(C(F)F)n1 (mixture of isomers) [Example 33]				Efficacy (Septoria tritici): 92%; Efficacy (Pyrenophora teres [3]): 100%; Efficacy (Sphaerotheca fuliginea): 94%
CC(NC(=O)c1c(C(F)F)nn(C)c1F)C12CC3CC(CC(C3)C1)C2 (centres unmarked) [Example 107]	4.03	80	95	
Cn1nc(C(F)F)c(C(=O)N(CC2CCC3CCCC3C2)C2CC2)c1Cl (centres unmarked) [Example 64]				Efficacy (Puccinia recondita): 94%; Efficacy (Septoria tritici): 93%; logP [1, 4]: 4.59; Efficacy (Pyrenophora teres [3]): 71%; Efficacy (Sphaerotheca fuliginea): 89%
CC(NC(=O)c1c(C(F)F)nn(C)c1Cl)C12CC3CC(CC(C3)C1)C2 (centres unmarked) [Example 106]	4.27	90	100	
COc1nn(C)c(F)c1C(=O)N(CC12CC3CC(CC(C3)C1)C2)C1CC1 [Example 110]	4.04			
Cn1cc(C(=O)NC23CC4CC(CC(C4)C2)C3)c(C(F)F)n1 [Example 55]	3.06			
CC1CC(C)(C)C2CCCC(NC(=O)c3c(C(F)F)nn(C)c3Cl)C12 (centres unmarked) [Example 16]	4.49	100		
Cn1nc(C(F)F)c(C(=S)NC2CCCC3CCCCC32)c1F (centres unmarked) [Example 28]	4.41	95	70	
CC1C(CNC(=O)c2c(C(F)F)nn(C)c2Cl)CC2CC1C2(C)C (centres unmarked) [Example 80]	4.25	100	100	
CC(C)N(C(=O)c1c(C(F)F)nn(C)c1Cl)C1CCCC2CCCCC21 (centres unmarked) [Example 26]	4.83			
Cn1nc(C(F)F)c(C(=O)N(CC23CC4CC(CC(C4)C2)C3)C2CC2)c1F [Example 109]	4.49			
CC1C(CNC(=O)c2c(C(F)F)nn(C)c2F)CC2CC1C2(C)C (centres unmarked) [Example 81]	3.99	100	100	
Cn1cc(C(=O)N(C2CC2)C2CCC3CCCC3C2)c(C(F)F)n1 (mixture of isomers) [Example 23]		100	80	Efficacy (Puccinia recondita): 81%; Efficacy (Sphaerotheca fuliginea): 83%
Cn1cc(C(=O)NCC23CC4CC(CC(C4)C2)C3)c(C(F)F)n1 [Example 87]	3.29			Efficacy (Puccinia recondita): 75%; Efficacy (Sphaerotheca fuliginea): 79%
Cn1nc(C(F)F)c(C(=O)N(CC2CCC3CCCC32)C2CC2)c1F (centres unmarked) [Example 58]	3.96			Efficacy (Puccinia recondita): 98%; Efficacy (Pyrenophora teres [3]): 100%
